# Read-outs that look alike come from different tables or passages of the source.
# Columns and labels:
# hSTINGmut [1] = biological target: T1, hSTINGmut (Homo sapiens, UniProt Q86WV6, G230I/H232R/Q266I/S162A); assay: DMXAA mediated expression of STING-derived cytokines (qPCR); type: cell-based; details: hSTINGmut-transduced MC38 and Hep2G cells; 50 μg/mL DMXAA, 3 h or 6 h
# T1 construct: expressed in transfected cells
# Method: (§1) As a readout, the expression of STING-derived cytokines was measured by qPCR.
# (§2) To this end, MC38 and Hep2G cells have been transduced with lentiviruses encoding luciferase, hSTINGwt, hSTINGmut to obtain stable cell lines as described above or were not transduced with any lentivirus (no vector). Respective cells were seeded in 24-well plates at a density of 750 cells/mm^2 in growth medium. […] Cells were harvested and prepared for qPCR measurements as described above. The expression of the cytokines IFN-β, TNF-α, IL-6, CXCL9 and CXCL10 were measured for either experimental group and expression levels relative to controls (no vector) were quantified.
# hSTINGwt = biological target: T2, hSTINGwt (Homo sapiens, UniProt Q86WV6, H232R); assay: as above; type: cell-based; details: other groups (luciferase, hSTINGwt, no vector); 50 μg/mL DMXAA
# T2 construct: expressed in transfected cells
# T2 sequence (Q86WV6 whole entry H232R): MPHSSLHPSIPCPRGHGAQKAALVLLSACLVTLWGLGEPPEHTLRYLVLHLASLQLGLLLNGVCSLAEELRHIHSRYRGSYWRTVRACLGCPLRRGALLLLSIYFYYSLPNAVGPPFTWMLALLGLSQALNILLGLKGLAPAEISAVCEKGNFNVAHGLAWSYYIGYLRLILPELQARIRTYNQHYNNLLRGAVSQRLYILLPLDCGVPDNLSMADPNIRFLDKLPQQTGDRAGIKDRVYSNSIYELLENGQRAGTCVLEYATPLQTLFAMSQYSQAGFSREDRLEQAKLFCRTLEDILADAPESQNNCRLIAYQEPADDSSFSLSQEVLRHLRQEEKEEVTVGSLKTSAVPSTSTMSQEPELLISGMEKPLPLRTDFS
# Method: as §1, §2
# hSTINGmut [2] = biological target: T1, hSTINGmut; assay: Time-course expression of STING-derived cytokines upon DMXAA treatment; type: cell-based; details: MC38 and Hep2G cells encoding hSTINGmut; 50 μg/mL DMXAA; any given timepoint
# Method: The objective of this experiment was to examine the time-course of STING-derived cytokine expression upon DMXAA treatment. As a readout, the expression of STING-derived cytokines was measured by qPCR.
# To this end, stable cell lines of MC38 and Hep2G cells encoding hSTINGmut have been obtained as described above. […] Cells were harvested and prepared for qPCR measurements as described above.
# STING = tested on: STING
# Method: C57 wild type mice, aged 6 to 10 weeks, were injected intravenously with an AAV8 vector encoding either hSTINGmut (AAV8-hSTINGmut, 1×10^11 viral genomes) or as a control GFP (AAV8-GFP, 1.5×10^11 viral genomes).
# MC38 cells [3] = assay: Synergism proof of principle I, IFN-β mRNA; type: cell-based, murine
# Method: To this end, MC38 cells received 8 Gy or 0 Gy as described above (example 7). Cells were seeded thereafter at 750 cells/mm^2 density and were then either mock-transduced or transduced with AAV8-hSTINGmut (1×10^5 viral genomes/cell). For cell transduction 8.5×10^9 viral genomes of AAV8-hSTINGmut from known concentration stock solutions, were resuspended in 50 μl RPMI 2% FBS. The resuspended viral particles were then added to the wells where the cells were seeded.
# MC38 cells [4] = assay: Synergism proof of principle II, IL-12 mRNA; type: cell-based, murine; details: cells transduced with AAV8-hSTINGmut plus AAV8-ISREx4-IL12miR122T
# Method: […] The resuspended viral particles were then added to the wells where the cells were seeded. […] The IL-12 mRNA was determined by qPCR as described above (example 3) and expression levels were quantified in reference to non-transduced, non-irradiated cells treated with vehicle.
# HEK293 cells = assay: Synergism proof of principle III, IFN-β and IL-12 mRNA; type: cell-based, human; details: for IFN-β expression levels: hSTINGmut expressing HEK293 cells
# Method: The IFN-β and the IL-12 mRNA expression levels were determined by qPCR as described above (example 1) and expression levels were quantified in reference to the indicated controls.
# [5] = tested on: native non-transduced MC38 cells; assay: Synergism proof of principle IV, IFN-β protein; type: cell-based, murine
# Excerpt: To this end, native non-transduced MC38 cells received 0 Gy, 2 Gy or 8 Gy as described above.
# MC38 tumors = assay: Synergism of DMXAA and radiotherapy in a humanized mouse model in vivo, cytokine levels; set-up: species or system STING KO mice; details: tumor extracts 6 h after DMXAA 20 mg/kg; irradiated
# [6] = human, in vivo; cited from earlier work
# human STING = human STING (Homo sapiens, UniProt Q86WV6, H232R); details: cited from earlier work
# Chain of human STING (Q86WV6 whole entry H232R): as above
# [7] = biological target: hSTING[R]-S162A/G230I/Q266I (Homo sapiens, UniProt Q86WV6, G230I/H232R/Q266I/S162A); details: cited from earlier work
# Chain of hSTING[R]-S162A/G230I/Q266I (Q86WV6 whole entry S162A/G230I/H232R/Q266I): as the sequence (Q86WV6 whole entry H232R) above, with S162A, G230I, Q266I counted along it
# established tumors = details: intratumor injections; STING-dependent; cited from earlier work
# [8] = 5 or 10 mg DMXAA/kg, AAV8-hSTINGmut transduced mice
# T1 sequence (Q86WV6 whole entry S162A/G230I/H232R/Q266I): as the sequence (Q86WV6 whole entry H232R) above, with S162A, G230I, Q266I counted along it
smiles,measurement,setting,value
"Cc1ccc2c(=O)c3cccc(CC(=O)O)c3oc2c1C [DMXAA, 5,6-Dimethylxanthenone-4-acetic acid]","expression of cytokines IFN-β, TNF-α, IL-6, CXCL9 and CXCL10",hSTINGmut [1],elevated
same,"expression of cytokines IFN-β, TNF-α, IL-6, CXCL9 and CXCL10",hSTINGwt,no significant alteration
same,time-course of STING-derived cytokine expression,hSTINGmut [2],increase in expression levels
same,IFN-β levels in serum,"STING; 20 mg DMXAA/kg i.p., AAV8-GFP transduced control animals, 3 h after injection",elevation of IFN-β levels
same,toxicity and mortality,"STING; 20 mg DMXAA/kg repeated, AAV8-GFP and AAV8-hSTINGmut mice (systemic STING stimulation)",high toxicity and mortality
same,IFN-β levels in serum,STING; [8],only very low levels
same,toxicity and mortality,STING; [8],neither cause significant toxicity nor mortality
same,IFN-β mRNA expression,"MC38 cells [3]; hSTINGmut-transduced MC38, 8 Gy, DMXAA 50 μg/mL 6 h",further increased
same,IFN-β mRNA expression,"MC38 cells [3]; hSTINGmut-transduced MC38, no irradiation, DMXAA",intermediate expression
same,IFN-β mRNA expression,"MC38 cells [3]; non-transduced MC38, 8 Gy, DMXAA 50 μg/mL 6 h",increase in IFN-β expression
same,IL-12 mRNA levels,MC38 cells [4]; irradiated with 8 Gy,strong elevation
same,IL-12 mRNA levels,MC38 cells [4]; non-irradiated,slight elevation
same,IL-12 expression levels,"HEK293 cells; HEK293 cells expressing ISREx4-IL12miR122T, radiation and further DMXAA treatment",significant increase in IL-12 expression levels
same,IFN-β expression levels,HEK293 cells; DMXAA 50 μg/mL,upregulated
same,IFN-β expression levels,HEK293 cells; DMXAA plus additional irradiation 8 Gy,significantly increased
same,IFN-β production (ELISA),"[5]; 8 Gy plus DMXAA at different doses, 24 h or 48 h",exceeding the sum of those obtained with radiation alone and DMXAA alone
same,IFN-β production (ELISA),"[5]; single dose 8 Gy, DMXAA 50 μg/mL 24 h later, collected after another 24 h",enhanced
same,intratumor levels of IL-12,MC38 tumors,increased significantly
same,efficacy in clinical trials,[6],lack of efficacy
same,tolerability in clinical trials,[6],well tolerated and only displayed minor side effects
same,activation of human STING,human STING,unable to activate
same,activation of hSTING[R]-S162A/G230I/Q266I,[7],highly activated
same,CD8+ T cell priming and tumor elimination,established tumors,effectively prime CD8+ T cell responses and promote elimination of the established tumors
